Data from patent US20180265867A1, “NUCLEIC ACID MOLECULES WITH ENHANCED ACTIVITY” (priority 2015, published 2018).
d = 2'-deoxy (DNA); r = 2'-OH (RNA)

How the values were obtained:
GAPDH = GAPDH gene knockdown in MG63 cells by RT-PCR; format: cell-based, human; details: for GAPDH gene knockdown: 50 nM, 24 h
Experimental: At 70% confluency, a day prior to transfection, the cells were seeded at a density of 35 000 cells in a 24-well cell culture plate to achieve 60-80% confluence at the day of transfection. Cell penetrating siRNAs (cpRNAs) of different lengths were transfected at 50 nM concentrations with Magnet Assisted Transfection (MATra-si) reagent for siRNAs (IBA GmbH, Göttingen, Germany) according to the manufacturers' protocols. Briefly, the siRNA was mixed with MATra-si reagent composed of supermagnetic ironoxide nanoparticles and incubated for 20 min. A complex was formed which was added to the cells to be transfected. A strong magnetic force was applied beneath the cells for 15 min. This forced the complex to be drawn into the cells by the magnetic field, and as a result the siRNA was delivered directly into the cytosol. For carrier free transfection experiments, cpRNAs were simply added to cells lines MG63, HOB, HCT116, fibroblasts and keratinocytes at 50 nM concentrations. Cells were also transfected with negative control siRNA (scrambled sequence) and cells left untreated were taken as controls. Each transfection was performed in triplicate. Post transfection, cells were incubated for 24 hours.
For the experiments involving lysosomotropic agent chloroquine (CQ), CQ was first neutralized to pH 7.4 using 1 M NaOH prior to use. MG63 cells were transfected with dT2, dT5, dT8, (dT5)2, as(dT5), and bl(dT5) siRNA in presence or absence of 100 μM CQ or using MATra-si and incubated for 24 h. Similar experiments were performed for other cpRNAs namely, dA5, dT5, dG5, (dT5)2, rA5 and dC5. For the control experiment, cells were either left untreated or transfected with negative control siRNA (scrambled sequence). Each transfection experiment was performed in triplicate.
After performing transfection experiments for 24 h, 48 h and 72 h respectively, total RNA was isolated from cells by adding 500 μl of lysis buffer (Qiagen, Germany), followed by homogenization of cell lysates using QIAshredder (Qiagen, Germany). RNA was extracted from cell lysates by RNeasy Mini Kit (Qiagen, Germany). All RNA samples were treated with DNase using TURBO-DNAfree (Ambion, USA). Agilent 2100 BioAnalyzer (Agilent Technologies, Palo Alto, Calif.) was used to confirm high quality of all RNA samples, which reports an RNA Integrity Number (RIN) that takes into account the entire electrophoretic RNA trace produced in the analysis. A RIN of greater than or equal to seven indicates the RNA is suitable for high stringency applications.
cDNA synthesis was performed in triplicate using total RNA reverse transcribed using High Capacity cDNA reverse transcription kit (Applied Biosystems, USA), with non-template control added to ensure a lack of signal in assay background. Reactions were incubated on a 96-well Applied Biosystems 9800 Fast Thermal Cycler PCR System at 37° C. for 60 min followed by 95° C. for 5 min. The real-time PCR reactions were carried out with 10 μl of 2×TaqMan® Universal PCR Master Mix, no AmpErase® UNG (Applied Biosystems, USA), 9 μl diluted cDNA, and 1 μl of TaqMan gene specific assay mix in a 20 μl final reaction volume. Reference gene beta-actin (ACTB) (Applied Biosystems, USA) was selected as control for normalization of TaqMan data. The assay included a no-template control, a standard curve of five serial dilution points (in steps of 3-fold) of cDNA mixture. Probes specific for IFN-α (Hs01022060_m1), IFN-β (Hs01077958_s1), IFN-γ (Hs00985251_m1), ACTB(Hs01060665_g1) and GAPDH (Hs02758991_g1) were purchased from Applied Biosystems. The amplification was carried out using the 7500 Fast Real-Time PCR System (Applied Biosystems, USA) using a 40-cycle program. The 7500 software automatically calculates raw Ct (cycle threshold) values. Data from samples with a Ct value equal to or below 35 were further analyzed. […]

[1] = Thermal denaturation (Tm) of siRNA duplexes; format: physicochemical; details: for Tm: 7.5 mM phosphate buffer pH 7.0 containing 140 mM KCl, 1 μM strands, 40-95° C.
Experimental: Thermal denaturation studies of siRNA was carried out in phosphate buffer, pH 7.0, containing 140 mM KCl. UV absorbance was monitored at 260 nm in the temperature range from 40 to 95° C. using a Lambda 35 UV-Vis spectrophotometer equipped with a Peltier temperature programmer with a heating rate of 0.5° C./min. Samples (1 μM RNA) were denatured at 90° C. for 3 min followed by slow cooling to 27° C. prior to the measurements. Tm values were obtained from the maxima of the first derivatives of the melting curves. All Tm values given are the averages of three independent sets of experiments (±0.3° C. error range).

MG63 and HOB cells = assay: Cell proliferation / toxicity by MTS assay; format: cell-based, human; details: 50 and 100 nM, 24 h post transfection
Experimental: Cell proliferation was assessed by MTS (3-(4,5-dimethylthiazol-2-yl)-5-(3-carboxymethoxyphenyl)-2-(4-sulfophenyl)-2H-tetrazolium, inner salt) reagent assay: MG63 cells were seeded at a density of 35 000 cells in 24-well culture plates, and cultured for 24 hours as mentioned above. Cells were transfected with 50 nM or 100 nM concentrations of cpRNA and negative control siRNAs with or without MATra-si, while control wells were left untreated. Each transfection experiment was performed in triplicate. Post-transfection, cells were incubated for 24 hours at 37° C. The viable cells were evaluated by MTS assay, using CellTiter 96®AQueousOne Solution Cell Proliferation Assay (Promega, USA) according to the manufacturer's protocol. The enzymatic reduction in MTS to formazan was quantified by an ELISA plate reader (Thermo Scientific) at 490 nm.
Thus, the role of siRNA topography on immune activation and cellular toxicity was investigated because increased RNA length has been reported to cause toxicity with increased interferon (IFN)-β expression. toxicity studies were performed using the MTS assay with two concentrations of GAPDH siRNA (50 and 100 nM) with different overhang lengths (dT2, dT5, and dT8) in MG63 and HOB cells and compared it with the scrambled siRNA sequence (FIG. 5).

[2] = MG63 cells, MATra-si transfection
[3] = MG63 cells, carrier-free transfection

| Substance | GAPDH gene knockdown (GAPDH; [2]) [%] | GAPDH gene knockdown (GAPDH; [3]) [%] | Tm [1] [°C] | cytotoxicity (MTS assay) (MG63 and HOB cells) | GAPDH mRNA knockdown efficiency over time (GAPDH; MG63, 50 nM, 24, 48 and 72 h, cpRNA without transfection reagent vs canonical siRNA with transfection reagent) | RNAi activity among different 5-nt candidates (GAPDH; MG63 cells, FIG. 2B) | enhancement in activity compared to canonical siRNA (GAPDH; [2]) [%] | Δ Tm ([1]; Tm relative to canonical siRNA (dT2)) [°C] | drop in Tm ([1]; as compared to canonical siRNA) |
| --- | --- | --- | --- | --- | --- | --- | --- | --- | --- |
| dT2: Canonical GAPDH siRNA, sense SEQ ID NO: 1, antisense SEQ ID NO: 2, dTdT 3′-overhang on both strands (sense CCGAGCCACAUCGCUCAGATT; antisense UCUGAGCGAUGUGGCUCGGTT; sugars from the 5' end r19 d2, backbone not given here) [reference compound] | 60 | 28 | 81.2 | do not impose toxicity |  |  |  |  |  |
| dT5: GAPDH siRNA, sense SEQ ID NO: 3 with dT5 3′-overhang, antisense SEQ ID NO: 2 with dT2 (sense CCGAGCCACAUCGCUCAGATTTTT; antisense UCUGAGCGAUGUGGCUCGGTT; sense: sugars from the 5' end r19 d5, backbone not given here; antisense: sugars from the 5' end r19 d2, backbone not given here) |  | 80 | 80.6 | do not impose toxicity | higher gene knockdown efficiency for over 72 hrs | highest RNAi activity | 20 | −0.6 | about 0.5 °C |
